Experimental data published in paper PMC11602988 (The Journal of Biological Chemistry, 2024).
Changes are numbered by the printed parent chain. “Also recorded” adds a separate entry of the source.

Key:
OCT1 WT [1] = target: T1, OCT1 WT (Homo sapiens, UniProt O15245); assay: Uptake screening (transport ratio over empty vector), HEK293 cells overexpressing OCT1 WT; assay type: cell-based; set-up: expressed in transfected cells;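 also: intracellular substrate levels quantified by HPLC–tandem mass spectrometry after uptake in HBSS+ buffer at 37 °C, stable Flp-In HEK293 lines, fold change versus empty vector–transfected cells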
T1 sequence (O15245 1-554): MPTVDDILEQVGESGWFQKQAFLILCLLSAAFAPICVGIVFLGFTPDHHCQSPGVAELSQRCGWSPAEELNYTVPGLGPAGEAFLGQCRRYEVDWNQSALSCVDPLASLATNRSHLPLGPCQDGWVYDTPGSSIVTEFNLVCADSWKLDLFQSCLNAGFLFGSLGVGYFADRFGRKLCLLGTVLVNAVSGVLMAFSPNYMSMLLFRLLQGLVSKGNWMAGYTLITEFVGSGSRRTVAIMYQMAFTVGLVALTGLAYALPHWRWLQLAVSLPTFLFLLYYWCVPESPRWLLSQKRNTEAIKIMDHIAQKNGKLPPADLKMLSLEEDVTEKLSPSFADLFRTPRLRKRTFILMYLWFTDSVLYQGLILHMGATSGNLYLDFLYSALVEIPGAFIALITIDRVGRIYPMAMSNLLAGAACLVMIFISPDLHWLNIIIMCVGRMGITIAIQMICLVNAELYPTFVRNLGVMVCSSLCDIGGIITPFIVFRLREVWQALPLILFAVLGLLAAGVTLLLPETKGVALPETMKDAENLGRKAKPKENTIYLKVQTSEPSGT

OCT1 Phe244Ala variant [2] = target: T2, OCT1 Phe244Ala variant (Homo sapiens, UniProt O15245, F244A); assay: Uptake screening (transport ratio over empty vector), HEK293 cells overexpressing OCT1 Phe244Ala variant; assay type: cell-based; set-up: expressed in transfected cells; details: for Fold increased uptake rate by Phe244Ala compared to WT / Transport activity of Phe244Ala in % of WT activity: 2.5 μM substrate, 2 min;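 as to all read-outs here: stably transfected HEK293 cells, intracellular substrate quantified by HPLC-tandem mass spectrometry in cell lysates, uptake in HBSS+ buffer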
T2 sequence (O15245 1-554 F244A): T1 sequence (O15245 1-554) with F244A

OCT1 Phe244Ala variant [3] = target: T2, OCT1 Phe244Ala variant; assay: Concentration-dependent uptake kinetics, HEK293 cells overexpressing OCT1 Phe244Ala; details: for Clint: OCT1 Phe244Ala, ratio of vmax over Km; for Km, Phe244Ala compared to WT / Maximum transport capacity (vmax), Phe244Ala compared to WT: uptake kinetics, in words;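 as to all read-outs here: cells exposed to rising substrate concentrations in buffer, intracellular drug measured by HPLC-tandem mass spectrometry, quantified against a standard curve, uptake referenced to empty vector-transfected HEK293 controls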
OCT1 WT [4] = target: T1, OCT1 WT; assay: Concentration-dependent uptake kinetics, HEK293 cells overexpressing OCT1 WT; details: OCT1 WT; ratio of vmax over Km
OCT1 WT [5] = target: T1, OCT1 WT; assay: cell-based
OCT1 Phe244Ala variant [6] = target: T2, OCT1 Phe244Ala variant; assay: Inhibition of (R,S)-ethambutol uptake, HEK293 cells overexpressing OCT1 Phe244Ala; details: for Inhibition of the Phe244Ala mutant compared to the WT transporter (screening): 20 μM inhibitor, 2 μM (R,S)-ethambutol, 5 min
OCT1 Phe244Ala variant [7] = target: T2, OCT1 Phe244Ala variant; assay: cell-based
OCT1 Phe244Ala variant [8] = target: T2, OCT1 Phe244Ala variant; assay: Stereoselective cell uptake of racemic substrates (chiral LC-MS/MS), OCT1 Phe244Ala variant; details: 2.5 μM racemic substance, 2 min
[9] = uptake ratio over empty vector, HEK293 cells overexpressing OCT1 WT
[10] = Phe244Ala uptake relative to WT
[11] = uptake ratio over empty vector, HEK293 cells overexpressing OCT1 Phe244Ala
[12] = uptake ratio of OCT1 WT-overexpressing HEK293 cells over empty vector
[13] = Phe244Ala uptake relative to OCT1 WT
[14] = uptake ratio of OCT1 Phe244Ala-overexpressing HEK293 cells over empty vector

| Structure (SMILES) | Clint (OCT1 Phe244Ala variant [3]) | Clint (OCT1 WT [4]) | IC50 (OCT1 WT [5]) [µM] | Inhibition of the Phe244Ala mutant compared to the WT transporter (screening) (OCT1 Phe244Ala variant [6]) | IC50 (OCT1 Phe244Ala variant [7]) [µM] | Km, Phe244Ala compared to WT (OCT1 Phe244Ala variant [3]) | other results |
| --- | --- | --- | --- | --- | --- | --- | --- |
| CC(C)(C)NCC(O)COc1cccc2c1CCC(=O)N2 (centres unmarked) [Carteolol] | 7.82 ± 8.13 ml × g Protein^−1 × min^−1 | 1.01 ± 1.41 ml × g Protein^−1 × min^−1 | – | – | – | – | Mean_transport_ratio_WT (OCT1 WT [1]; [9]): 3.378; Fold increased uptake rate by Phe244Ala compared to WT (OCT1 Phe244Ala variant [2]): 3.2 fold; relative_Phe244Ala_uptake_in% (OCT1 Phe244Ala variant [2]; [10]): 315.540%; Mean_transport_ratio_Phe244Ala (OCT1 Phe244Ala variant [2]; [11]): 8.502 |
| Clc1cccc(Cl)c1N=C1NCCN1 [Clonidine] | – | – | 1.62 | strongly reduced inhibition | 34.3 | – | Fold difference of inhibitory potency between WT and Phe244Ala (OCT1 Phe244Ala variant [6]; IC50 comparison, (R,S)-ethambutol uptake): 21 fold |
| CC(CCc1ccc(O)cc1)NCCc1ccc(O)c(O)c1 (centres unmarked) [Dobutamine] | 7.88 ± 6.38 ml × g Protein^−1 × min^−1 | 3.03 ± 6.16 ml × g Protein^−1 × min^−1 | – | – | – | lower Km values | Mean_transport_ratio_WT (OCT1 WT [1]; [9]): 6.852; relative_Phe244Ala_uptake_in% (OCT1 Phe244Ala variant [2]; [10]): 249.567%; Mean_transport_ratio_Phe244Ala (OCT1 Phe244Ala variant [2]; [11]): 15.606 |
| NC(N)=Nc1nc(CSCCC(N)=NS(N)(=O)=O)cs1 [Famotidine] | 12.1 ± 19.8 ml × g Protein^−1 × min^−1 | 45.8 ± 45.7 ml × g Protein^−1 × min^−1 | – | – | – | higher Km values | Maximum transport capacity (vmax), Phe244Ala compared to WT (OCT1 Phe244Ala variant [3]): more similar maximum transport capacities |
| CC(Cc1ccc(O)cc1)NCC(O)c1cc(O)cc(O)c1 (centres unmarked) [Fenoterol] | – | – | 0.541 | – | 5.53 | – | Stereoselectivity of Phe244Ala variant compared to WT (OCT1 Phe244Ala variant [8]): opposite stereoselectivities; also recorded: only one enantiomer of the racemic mixtures showed altered transport |
| CN[C@@H]1CCc2[nH]c3ccc(C(N)=O)cc3c2C1 [Frovatriptan] | – | – | – | – | – | – | Mean_transport_ratio_WT (OCT1 WT [1]; [12]): 22.068; Stereoselectivity of Phe244Ala variant compared to WT (OCT1 Phe244Ala variant [8]): opposite stereoselectivities; also recorded: only one enantiomer of the racemic mixtures showed altered transport; relative_Phe244Ala_uptake_in% (OCT1 Phe244Ala variant [2]; [13]): 43.181%; Mean_transport_ratio_Phe244Ala (OCT1 Phe244Ala variant [2]; [14]): 10.097 |
| CN(C)CCc1ccc(O)cc1 [Hordenine] | – | – | 3 | strongly reduced inhibition | 53.2 | – | Mean_transport_ratio_WT (OCT1 WT [1]; [12]): 2.424; relative_Phe244Ala_uptake_in% (OCT1 Phe244Ala variant [2]; [13]): 11.246%; Mean_transport_ratio_Phe244Ala (OCT1 Phe244Ala variant [2]; [14]): 1.16 |
| COc1cc(CCN)cc(OC)c1OC [Mescaline] | 0.91 ± 2.50 ml × g Protein^−1 × min^−1 | 4.84 ± 2.55 ml × g Protein^−1 × min^−1 | – | strongly reduced inhibition | – | higher apparent affinity Km and transport capacity vmax for the WT transporter than the Phe244Ala variant | Mean_transport_ratio_WT (OCT1 WT [1]; [12]): 5.297; Transport activity of Phe244Ala in % of WT activity (OCT1 Phe244Ala variant [2]; [10]): ~10%; relative_Phe244Ala_uptake_in% (OCT1 Phe244Ala variant [2]; [13]): 16.381%; Mean_transport_ratio_Phe244Ala (OCT1 Phe244Ala variant [2]; [14]): 1.704; Maximum transport capacity (vmax), Phe244Ala compared to WT (OCT1 Phe244Ala variant [3]): higher apparent affinity Km and transport capacity vmax for the WT transporter than the Phe244Ala variant |
| CC(=O)OC(C)C[N+](C)(C)C (stereo not drawn) [Methacholine, Acetyl-beta-methylcholine] | 3.03 ± 8.29 ml × g Protein^−1 × min^−1 | 14.1 ± 15.2 ml × g Protein^−1 × min^−1 | – | – | – | higher Km values | Transport activity of Phe244Ala in % of WT activity (OCT1 Phe244Ala variant [2]; [10]): ~10%; Maximum transport capacity (vmax), Phe244Ala compared to WT (OCT1 Phe244Ala variant [3]): more similar maximum transport capacities |
| CN1CCN(CC(=O)N2c3ccccc3C(=O)Nc3cccnc32)CC1 [Pirenzepine] | 2.74 ± 2.15 ml × g Protein^−1 × min^−1 | 0.43 ± 0.85 ml × g Protein^−1 × min^−1 | 104 | more potent inhibition | 23.3 | lower Km values | Fold increased uptake rate by Phe244Ala compared to WT (OCT1 Phe244Ala variant [2]): 8.0 fold |
| CC(C)[N+](C)(CCOC(=O)C1c2ccccc2Oc2ccccc21)C(C)C [Propanthelin, Propantheline] | 205 ± 124 ml × g Protein^−1 × min^−1 | 224 ± 251 ml × g Protein^−1 × min^−1 | – | – | – | – | – |
